Where only a bound is given, the exact number is not on record here.

Experimental findings from paper PMC8225008, “Development of Non-Ethoxypropanoic Acid Type Cryptochrome Inhibitors with Circadian Molecular Clock-Enhancing Activity by Bioisosteric Replacement” (Pharmaceuticals, 2021) are described below.

The nature of data set [1]: In vivo pharmacokinetics in rats after IV or PO administration. Further details: species or system Sprague Dawley (SD) male rats. The note with it: male, Sprague Dawley, rat, oral 5 mg/kg, measured as 2d form in plasma. The method, then: For in vivo pharmacokinetic studies, Sprague Dawley (SD) male rats (weighing 270–280 g) were purchased from Orient Bio Inc. (Seongnam, Korea). Experimental protocols involving animal use were carefully reviewed and approved by the Institutional Animal Care and Use Committee at Gachon University. Prior to studies, animals fasted for 18 h, but with free access to water. Compound 5d or 2d was dissolved in a dosing vehicle consisting of PEG400, normal saline, and dimethylsulfoxide in a ratio of 6:3:1 (v/v/v%) to make a 2 mg/mL dosing solution. […]
To determine drug concentration levels in plasma, the Agilent 1290 UHPLC-DAD system with Polar RP column (3 μm, 150 mm × 2 mm ID., Phenomenex) was used for chromatographic separations. […] The total run time was 4.4 min for samples which were monitored at 260 nm. […]
The EC50 values for luciferase reporter assay were calculated based on a logistic four-parametric equation using the mean values of intrinsic activation (SigmaPlot 10.0; Systat Software Inc., San Jose, CA, USA). The IC50 and t1/2 values for the cytochrome P450 inhibition assay and metabolic stability test were calculated by WinNonlin software (Pharsight, Mountain View, CA, USA). Pharmacokinetic parameters were calculated using non-compartmental analysis (WinNonlin v.8.3; Pharsight, Mountain View, CA, USA). […]

In the next data set the target is T1, CYP2C19 (Homo sapiens, UniProt P33261).
T1 construct: pooled human liver microsomes (HLMs, XTreme 200, XenoTech, Lenexa, KS, USA); tissue XenoTech XTreme 200; host or cells: pooled human liver microsomes
T1 sequence (P33261 whole entry): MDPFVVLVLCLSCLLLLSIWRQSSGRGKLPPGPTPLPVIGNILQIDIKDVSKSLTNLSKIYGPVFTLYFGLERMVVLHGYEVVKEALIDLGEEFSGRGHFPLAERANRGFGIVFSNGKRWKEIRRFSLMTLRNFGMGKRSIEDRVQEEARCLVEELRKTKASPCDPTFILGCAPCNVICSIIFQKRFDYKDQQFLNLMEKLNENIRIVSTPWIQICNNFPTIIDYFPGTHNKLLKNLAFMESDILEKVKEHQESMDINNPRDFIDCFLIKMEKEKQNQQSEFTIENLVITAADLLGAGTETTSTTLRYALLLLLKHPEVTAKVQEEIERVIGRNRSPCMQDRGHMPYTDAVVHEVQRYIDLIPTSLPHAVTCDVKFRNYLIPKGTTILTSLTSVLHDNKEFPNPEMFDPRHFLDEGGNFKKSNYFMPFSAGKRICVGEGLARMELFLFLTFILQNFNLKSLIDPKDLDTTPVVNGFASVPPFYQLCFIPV
In words: Cytochrome P450 inhibition assay (cocktail method, human liver microsomes), omeprazole hydroxylation. It counts as in vitro ADME. The method, then: (§1) The inhibitory effects of KS15 and compound 5d on the metabolism of five cytochrome P450 (P450) probe substrates were evaluated using previous methods with slight modifications. The following P450 probe substrates were used: phenacetin (100 μM) for CYP1A2, tolbutamide (100 μM) for CYP2C9, omeprazole (20 μM) for CYP2C19, dextromethorphan (5 μM) for CYP2D6, and midazolam (5 μM) for CYP3A. Incubation mixtures containing pooled human liver microsomes (HLMs, XTreme 200, XenoTech, Lenexa, KS, USA), P450 probe substrates, and KS15 or compound 5d (final concentrations: 0, 0.5, 2, 5, 20, and 50 μM) were preincubated for 5 min at 37 °C. […] After centrifugation at 18,000× g (5 min, 4 °C), supernatant aliquots were analyzed by liquid chromatography-tandem mass spectrometry (LC-MS/MS). […]
(§2) All metabolites and IS were separated on a Kinetex C18 column (100 mm × 2.1 mm, 2.6 μm ID., Phenomenex, Torrance, CA, USA) and analyzed using an LC-MS/MS system (LCMS 8060, Shimadzu, Tokyo, Japan) equipped with an electrospray ionization (ESI) interface. […]
(§3) The EC50 values for luciferase reporter assay were calculated based on a logistic four-parametric equation using the mean values of intrinsic activation (SigmaPlot 10.0; Systat Software Inc., San Jose, CA, USA). […] Pharmacokinetic parameters were calculated using non-compartmental analysis (WinNonlin v.8.3; Pharsight, Mountain View, CA, USA). […]

A further data set relates to CYP3A. In words: Cytochrome P450 inhibition assay (cocktail method, human liver microsomes), midazolam 1'-hydroxylation. The note with it: pooled human liver microsomes, probe midazolam (5 μM). In kind it is in vitro ADME. On the procedure:
as §1, §2, §3
For orientation: Liver microsomes are vesicles of endoplasmic reticulum, rich in cytochrome P450 enzymes.

Take `CC(=NOCc1ccc([N+](=O)[O-])cc1)c1cccc(OCC(=O)O)c1` [Compound 2d, 2-(3-(1-(((4-nitrobenzyl)oxy)imino)ethyl)phenoxy)acetic acid]: the half-life (usually the time in which the quantity being followed falls by half) in data set [1] came to 6.52 ± 0.793 h. The AUC in data set [1] (read-out: AUCinfinite (converted)) was 184 µg·h/mL.
Take `COC(=O)COc1cccc(C(C)=NOCc2ccc([N+](=O)[O-])cc2)c1` [Compound 5d, Methyl 2-(3-(1-(((4-nitrobenzyl)oxy)imino)ethyl)phenoxy)acetate]: the IC50 (as a rule, the point on the concentration scale where inhibition reaches its midpoint) against CYP2C19 is more than 50 µM. The compound further returned an IC50 at 10 min in the data set with CYP3A of more than 50 µM.
